Experimental data: PubChem BioAssay AID1963850 (Molecular Pharmacology Branch, DTP, NCI, 2024)

Test system: 192522-019-R-J2-PDC complex tumor spheroid viability
Assay: Anticancer human tumor 192522-019-R-J2-PDC patient-derived colon adenocarcinoma cell line growth inhibition [POLQ]
Settings: for IC50: curve of first compound; for viability, T/C: stronger effect = lower value
In short: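 Complex spheroid viability model combining PDC tumour cells with endothelial (HUVEC) and MSC stromal cells. Novobiocin, ART-558 or RP6685 were tested singly and in combination with standard and investigational anticancer drugs. Each was titrated in half-log steps from near clinical Cmax, or from 10 microM where Cmax was unknown.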

[1] = second compound 0.0316 µM, first compound 0.0316 µM
[2] = second compound 0.0316 µM, first compound 0.1 µM
[3] = second compound 0.0316 µM, first compound 0.316 µM
[4] = second compound 0.0316 µM, first compound 1 µM
[5] = second compound 0.0316 µM, first compound 3.16 µM
[6] = second compound 0.0316 µM, first compound 10 µM
[7] = second compound 0.1 µM, first compound 0.0316 µM
[8] = second compound 0.1 µM, first compound 0.1 µM
[9] = second compound 0.1 µM, first compound 0.316 µM
[10] = second compound 0.1 µM, first compound 1 µM
[11] = second compound 0.1 µM, first compound 3.16 µM
[12] = second compound 0.1 µM, first compound 10 µM
[13] = second compound 0.316 µM, first compound 0.0316 µM
[14] = second compound 0.316 µM, first compound 0.1 µM
[15] = second compound 0.316 µM, first compound 0.316 µM
[16] = second compound 0.316 µM, first compound 1 µM
[17] = second compound 0.316 µM, first compound 3.16 µM
[18] = second compound 0.316 µM, first compound 10 µM
[19] = second compound 1 µM, first compound 0.0316 µM
[20] = second compound 1 µM, first compound 0.1 µM
[21] = second compound 1 µM, first compound 0.316 µM
[22] = second compound 1 µM, first compound 1 µM
[23] = second compound 1 µM, first compound 3.16 µM
[24] = second compound 1 µM, first compound 10 µM
[25] = second compound 3.16 µM, first compound 0.0316 µM
[26] = second compound 3.16 µM, first compound 0.1 µM
[27] = second compound 3.16 µM, first compound 0.316 µM
[28] = second compound 3.16 µM, first compound 1 µM
[29] = second compound 3.16 µM, first compound 3.16 µM
[30] = second compound 3.16 µM, first compound 10 µM
[31] = second compound 10 µM, first compound 0.0316 µM
[32] = second compound 10 µM, first compound 0.1 µM
[33] = second compound 10 µM, first compound 0.316 µM
[34] = second compound 10 µM, first compound 1 µM
[35] = second compound 10 µM, first compound 3.16 µM
[36] = second compound 10 µM, first compound 10 µM
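Also: spheroids exposed to drugs for seven days before reading.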
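For viability, T/C in this document: 100% = DMSO vehicle control viability in luminescence.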

Structure (SMILES): COc1cc2cc(C(=O)CCC(=O)O)sc2cc1OC + Cc1cccc(N(C)C(=O)C2C(O)CCN2c2nc(C)cc(C(F)(F)F)c2C#N)c1
- IC50 (second compound 0.0316 µM): > 10 µM
- IC50 (second compound 0.1 µM): > 10 µM
- IC50 (second compound 0.316 µM): > 10 µM
- IC50 (second compound 1 µM): > 10 µM
- IC50 (second compound 3.16 µM): > 10 µM
- IC50 (second compound 10 µM): > 10 µM
- viability, T/C [1]: 114%
- viability, T/C [2]: 97.4%
- viability, T/C [3]: 94.9%
- viability, T/C [4]: 95.8%
- viability, T/C [5]: 98.7%
- viability, T/C [6]: 92.5%
- viability, T/C [7]: 107%
- viability, T/C [8]: 99.6%
- viability, T/C [9]: 96.1%
- viability, T/C [10]: 110%
- viability, T/C [11]: 103%
- viability, T/C [12]: 107%
- viability, T/C [13]: 102%
- viability, T/C [14]: 100%
- viability, T/C [15]: 93.8%
- viability, T/C [16]: 101%
- viability, T/C [17]: 104%
- viability, T/C [18]: 110%
- viability, T/C [19]: 101%
- viability, T/C [20]: 106%
- viability, T/C [21]: 97.7%
- viability, T/C [22]: 108%
- viability, T/C [23]: 108%
- viability, T/C [24]: 105%
- viability, T/C [25]: 108%
- viability, T/C [26]: 104%
- viability, T/C [27]: 96.3%
- viability, T/C [28]: 96.6%
- viability, T/C [29]: 101%
- viability, T/C [30]: 105%
- viability, T/C [31]: 103%
- viability, T/C [32]: 102%
- viability, T/C [33]: 103%
- viability, T/C [34]: 102%
- viability, T/C [35]: 111%
- viability, T/C [36]: 97.4%

Structure (SMILES): O=C(Nc1ccc(O)c(NS(=O)(=O)c2ccc(F)cc2)c1)c1ccc(-c2ccccc2)cc1 + Cc1cccc(N(C)C(=O)C2C(O)CCN2c2nc(C)cc(C(F)(F)F)c2C#N)c1
- IC50 (second compound 0.0316 µM): > 10 µM
- IC50 (second compound 0.1 µM): > 10 µM
- IC50 (second compound 0.316 µM): > 10 µM
- IC50 (second compound 1 µM): > 10 µM
- IC50 (second compound 3.16 µM): > 10 µM
- IC50 (second compound 10 µM): > 10 µM
- viability, T/C [1]: 94.8%
- viability, T/C [2]: 97.5%
- viability, T/C [3]: 98.2%
- viability, T/C [4]: 96.3%
- viability, T/C [5]: 106%
- viability, T/C [6]: 109%
- viability, T/C [7]: 101%
- viability, T/C [8]: 98.5%
- viability, T/C [9]: 99.7%
- viability, T/C [10]: 90.4%
- viability, T/C [11]: 101%
- viability, T/C [12]: 94.8%
- viability, T/C [13]: 96.9%
- viability, T/C [14]: 96.4%
- viability, T/C [15]: 93.5%
- viability, T/C [16]: 101%
- viability, T/C [17]: 103%
- viability, T/C [18]: 101%
- viability, T/C [19]: 113%
- viability, T/C [20]: 106%
- viability, T/C [21]: 101%
- viability, T/C [22]: 102%
- viability, T/C [23]: 98.9%
- viability, T/C [24]: 103%
- viability, T/C [25]: 103%
- viability, T/C [26]: 104%
- viability, T/C [27]: 106%
- viability, T/C [28]: 100%
- viability, T/C [29]: 108%
- viability, T/C [30]: 105%
- viability, T/C [31]: 114%
- viability, T/C [32]: 100%
- viability, T/C [33]: 106%
- viability, T/C [34]: 97.9%
- viability, T/C [35]: 99.8%
- viability, T/C [36]: 98.5%

Structure (SMILES): CC(=O)O[C@H]1C(=O)[C@@]2(C)[C@H]([C@H](OC(=O)c3ccccc3)[C@]3(O)C[C@H](OC(=O)[C@H](O)[C@@H](NC(=O)c4ccccc4)c4ccccc4)C(C)=C1C3(C)C)[C@]1(OC(C)=O)CO[C@@H]1C[C@@H]2O + Nc1ccc(C#CCN(C(=O)Cc2ncc(C(F)(F)F)cc2C(F)(F)F)c2ccc(F)cc2)nn1
- IC50 (second compound 0.0316 µM): > 3 µM
- IC50 (second compound 0.1 µM): > 3 µM
- IC50 (second compound 0.316 µM): > 3 µM
- IC50 (second compound 1 µM): > 3 µM
- IC50 (second compound 3.16 µM): > 3 µM
- IC50 (second compound 10 µM): > 3 µM
- viability, T/C (second compound 0.0316 µM, first compound 0.00949 µM): 95.6%
- viability, T/C (second compound 0.0316 µM, first compound 0.03 µM): 65.1%
- viability, T/C (second compound 0.0316 µM, first compound 0.0949 µM): 50.2%
- viability, T/C (second compound 0.0316 µM, first compound 0.3 µM): 57%
- viability, T/C (second compound 0.0316 µM, first compound 0.949 µM): 56.9%
- viability, T/C (second compound 0.0316 µM, first compound 3 µM): 60.2%
- viability, T/C (second compound 0.1 µM, first compound 0.00949 µM): 95.3%
- viability, T/C (second compound 0.1 µM, first compound 0.03 µM): 63.3%
- viability, T/C (second compound 0.1 µM, first compound 0.0949 µM): 55.4%
- viability, T/C (second compound 0.1 µM, first compound 0.3 µM): 54.8%
- viability, T/C (second compound 0.1 µM, first compound 0.949 µM): 61.2%
- viability, T/C (second compound 0.1 µM, first compound 3 µM): 50.2%
- viability, T/C (second compound 0.316 µM, first compound 0.00949 µM): 88.7%
- viability, T/C (second compound 0.316 µM, first compound 0.03 µM): 69.6%
- viability, T/C (second compound 0.316 µM, first compound 0.0949 µM): 54.2%
- viability, T/C (second compound 0.316 µM, first compound 0.3 µM): 58.2%
- viability, T/C (second compound 0.316 µM, first compound 0.949 µM): 57.9%
- viability, T/C (second compound 0.316 µM, first compound 3 µM): 54.9%
- viability, T/C (second compound 1 µM, first compound 0.00949 µM): 86.3%
- viability, T/C (second compound 1 µM, first compound 0.03 µM): 62.6%
- viability, T/C (second compound 1 µM, first compound 0.0949 µM): 53.7%
- viability, T/C (second compound 1 µM, first compound 0.3 µM): 51.3%
- viability, T/C (second compound 1 µM, first compound 0.949 µM): 57.4%
- viability, T/C (second compound 1 µM, first compound 3 µM): 50.9%
- viability, T/C (second compound 3.16 µM, first compound 0.00949 µM): 85.5%
- viability, T/C (second compound 3.16 µM, first compound 0.03 µM): 65.7%
- viability, T/C (second compound 3.16 µM, first compound 0.0949 µM): 55.8%
- viability, T/C (second compound 3.16 µM, first compound 0.3 µM): 54.6%
- viability, T/C (second compound 3.16 µM, first compound 0.949 µM): 59.2%
- viability, T/C (second compound 3.16 µM, first compound 3 µM): 56%
- viability, T/C (second compound 10 µM, first compound 0.00949 µM): 80%
- viability, T/C (second compound 10 µM, first compound 0.03 µM): 66.3%
- viability, T/C (second compound 10 µM, first compound 0.0949 µM): 60.2%
- viability, T/C (second compound 10 µM, first compound 0.3 µM): 61.2%
- viability, T/C (second compound 10 µM, first compound 0.949 µM): 60.9%
- viability, T/C (second compound 10 µM, first compound 3 µM): 56.5%
